Experimental data as given in paper PMC9140012, “Epigenetic-Like Stimulation of Receptor Expression in SSTR2 Transfected HEK293 Cells as a New Therapeutic Strategy” (Cancers, 2022).
“And” between values parts separate entries of the source, which are not always exact repeats. Equal values may be shown once.

What was measured:
[1] = test system: HEKsst2 cells; assay: Radiotoxic dose-response of Lu-177-DOTATATE (CFA), unstimulated HEKsst2; assay type: cell-based
Protocol: (§1) To show the dose-response relationship, the unstimulated HEKsst2 and PC3 cells were irradiated with absorbed doses of 0.1–7.5 Gy in an X-ray tube.
(§2) To determine the radiosensitivity and radiotoxicity, the clonogene cell survival was analyzed. Colony formation assays were performed as described earlier. The following steps have been done for each of the treatment procedures. Briefly, after detaching the treated cells, an aliquot of the cell suspension per dose point was distributed in T25 culture flasks for the colony formation test and is placed in an incubator for 7 (HEKsst2) or 10 days (PC3). To stop colony formation, the cells were fixed with ethanol 80% (v/v) followed by staining with crystal violet solution. The colony counting was carried out under a microscope (25× magnification). Colonies of more than 50 cells were scored as survivors. The plating efficiency (PE) and the survival rate (survival fraction SF) were calculated for irradiated and unirradiated cells based on the number of seeded cells.

[2] = test system: PC3 cells; assay: Radiotoxicity of Lu-177-DOTATATE on unstimulated and stimulated PC3 (CFA); assay type: cell-based, human; conditions: for cell survival of stimulated vs unstimulated PC3: 5-aza-dC and VPA
Protocol: (§3) The stimulation process followed the protocol described above.
as §2

[3] = test system: cell lines HEKsst2 and PC3; assay: A80/A60 of Lu-177-DOTATATE by colony formation assay, HEKsst2 and PC3; assay type: cell-based; conditions: 24 h incubation, value used for both HEKsst2 and PC3
Protocol: as §1, §3, §2

[4] = test system: HEKsst2 cells; assay: Radiotoxicity of Lu-177-DOTATATE on unstimulated and stimulated HEKsst2 (CFA); assay type: cell-based; conditions: for Survival Fraction: 24 h
Protocol: as §3, §2

[5] = test system: SSTR2 in HEKsst2 cells; assay: Saturation binding of Lu-177-DOTATATE, HEKsst2; set-up: species or system murine; conditions: for Kd: excess DOTATATE for non-specific binding; for number of binding sites per cell: from Bmax
Protocol: (§4) HEK293 cells were obtained from the German Resource Center for Biological Material (DSMZ, Braunschweig, Germany) and grown in Dulbecco’s modified Eagle´s medium supplemented with 10% fetal calf serum (FCS) in a humidified atmosphere containing 5% CO2. Cells were transfected with plasmid, encoding murine HA-tagged SSTR2 receptors using lipofectamine according to the manufacturing instructions (Thermofisher, Darmstadt, Germany). Stable transfectants were selected in the presence of 500 µg/mL G-418 and characterized using radioligand binding assays, Western blot analyses, surface ELISA assays and immunocytochemistry as described previously. Non-transfected HEK293 cells were maintained under equal conditions as HEKsst2 except for the addition of G-418. In the following, HEK293 cells and SSTR2 transfected HEK293 cells are termed as HEK and HEKsst2, respectively. The human prostate carcinoma cell line PC3 (ATCC®, Manassas, VA, USA) was cultured in a RPMI medium with 10% (v/v) FCS and 1% (v/v) non-essential amino acids (NEA). […] The culture medium of each cell line was renewed every 2–3 days. Via a PCR test, each cell line is proven to be free of mycoplasmas.
Excess DOTATATE (3.5 × 10^−3–7.03 nmol) was used to block receptors and determine the non-specific binding. The uptake data (triplicates per each condition) were fitted to a one-site binding model in GraphPad Prism 9.0 to determine the number of binding sites (Bmax) and the dissociation constant (Kd).
To determine the Bmax values and the Kd, the GraphPad Prism 9.0 software was used. Confidence Intervals (CI) express a 95% likelihood of the nonlinear fit.

[6] = test system: SSTR2 in HEKsst2 cells; assay: Intracellular Lu-177-DOTATATE uptake, HEKsst2; assay type: cell-based, murine; conditions: for Lu-177-DOTATATE uptake (intracellular activity, % of total activity normalized to 2.0 × 10^5 cells): 37 °C; for Lu-177-DOTATATE uptake (intracellular activity, % of total activity normalized to 2.0 × 10^5 cells) / increase of Lu-177-DOTATATE uptake by a factor: 50 kBq; for increase of Lu-177-DOTATATE uptake by a factor: stimulated (5.0 µM 5-aza-dC, 1.85 mM VPA) vs unstimulated
Protocol: as §4
After incubation times, the supernatant of the well was removed and the cells were washed twice with PBS (phosphate buffered saline) at 4 °C. Supernatant and washed solution make up the non-bound fraction of the radioligand. The cell layers were lysed with 1 mL 0.1 M NaOH for 10 min at 37 °C. These fractions correspond to the intracellular fraction of radioligand. The activity of all fractions was measured using a Gamma-Counter (Cobra II, Autogamma, Packard®, Canberra Company, Ruesselsheim, Germany). The intracellular activity was expressed as a percentage of the total activity normalized to the cell count of 2.0 × 10^5.
To examine the statistical significance, an unpaired student’s t-test was used. A difference between two independent samples is significant if the probability of error p ≤ 0.05. For the statistical evaluation, MS Office Excel was used.

[7] = test system: PC3 cells; assay: Radiotoxic dose-response of Lu-177-DOTATATE (CFA), unstimulated PC3; assay type: cell-based, human; conditions: up to 0.5 MBq/mL, 24 h, compared with HEKsst2
Protocol: as §1, §2

[8] = test system: PC3 cells; assay: Intracellular Lu-177-DOTATATE uptake, PC3; assay type: cell-based, human; conditions: 50 kBq
Protocol: HEK293 cells were obtained from the German Resource Center for Biological Material (DSMZ, Braunschweig, Germany) and grown in Dulbecco’s modified Eagle´s medium supplemented with 10% fetal calf serum (FCS) in a humidified atmosphere containing 5% CO2. Cells were transfected with plasmid, encoding murine HA-tagged SSTR2 receptors using lipofectamine according to the manufacturing instructions (Thermofisher, Darmstadt, Germany). Stable transfectants were selected in the presence of 500 µg/mL G-418 and characterized using radioligand binding assays, Western blot analyses, surface ELISA assays and immunocytochemistry as described previously. Non-transfected HEK293 cells were maintained under equal conditions as HEKsst2 except for the addition of G-418. In the following, HEK293 cells and SSTR2 transfected HEK293 cells are termed as HEK and HEKsst2, respectively. […]
After incubation times, the supernatant of the well was removed and the cells were washed twice with PBS (phosphate buffered saline) at 4 °C. […] The activity of all fractions was measured using a Gamma-Counter (Cobra II, Autogamma, Packard®, Canberra Company, Ruesselsheim, Germany). The intracellular activity was expressed as a percentage of the total activity normalized to the cell count of 2.0 × 10^5. […]

[9] = test system: Forskolin-stimulated cAMP production; set-up: method as in PMID 29599907; conditions: BON-1 and QGP-1 stimulated with 5-aza-dC and VPA; cited from earlier work

(DOTA)-[Tyr3, Thr8]-octreotide [Lu-177-DOTATATE, SSTR2-targeted radioligand, Lu-177 labelled (DOTA)-[Tyr3, Thr8]-octreotide]
radioactivity concentration at which all SST2 receptors are engaged (assumed) ([1]; HEKsst2, equal to approximately 0.34 ng/500,000 cells): 0.5 MBq/mL
decrease of SF values with Lu-177-DOTATATE concentration ([1]; unstimulated HEKsst2, 0.05-5 MBq/mL, 24 h): strong dose-dependent decrease of the SF values until the receptors seemed to be saturated
cell survival of stimulated vs unstimulated PC3 ([2]; 57.5 kBq/mL Lu-177-DOTATATE, not statistically significant, p = 0.5482): higher SF fractions
cell survival of stimulated vs unstimulated PC3 ([2]; 136 kBq/mL Lu-177-DOTATATE, p = 0.5078): only a slight, statistically insignificant difference
radiotoxic effects when stimulated with 5-aza-dC and VPA ([2]; PC3, Lu-177-DOTATATE 57.5 and 136 kBq/mL): no increase regarding the radiotoxic effects
A60 ([3]; activity equivalent to X-ray D60 (1.2 Gy)): 136 kBq/mL
A80 ([3]; activity equivalent to X-ray D80 (0.6 Gy)): 57.5 kBq/mL
Survival Fraction ([4]; 57.5 kBq/mL Lu-177-DOTATATE, non-stimulated): 0.54
Survival Fraction ([4]; 57.5 kBq/mL Lu-177-DOTATATE, stimulated with 5-aza-dC 0.25 µM and VPA 0.6 mM, normalized to SF = 1, p = 0.1424 vs unstimulated): 0.27
factor of increase of radiotoxic effects, stimulated vs unstimulated ([4]; 57.5 kBq/mL, 5-aza-dC 0.25 µM and VPA 0.6 mM): 2
Survival Fraction ([4]; 136 kBq/mL Lu-177-DOTATATE, stimulated with 5-aza-dC 0.46 µM and VPA 1.0 mM, normalized to SF = 1, p = 0.0029 vs unstimulated): 0.09 and 0.1
Survival Fraction ([4]; 136 kBq/mL Lu-177-DOTATATE, unstimulated): 0.42
factor of lower survival, stimulated vs unstimulated (radiotoxic effect increase) ([4]; 136 kBq/mL, 5-aza-dC 0.46 µM and VPA 1.0 mM): 4
Bmax ([5]; HEKsst2 stimulated with 5-aza-dC and VPA, 1 h, 37 °C, one-site model, specific binding, 95% CI = 1.08 × 10^−9 to 1.62 × 10^−9 nmol): 1.32e-09 nmol
Kd ([5]; HEKsst2 stimulated with 5-aza-dC and VPA, 1 h, 37 °C, one-site model): 4.88 nM
number of binding sites per cell ([5]; HEKsst2 stimulated with 5-aza-dC and VPA): 7.95 × 10^5
maximum total binding ([5]; almost reached at 0.5 MBq/mL Lu-177-DOTATATE, HEKsst2): 17 kBq/500,000 cells
Bmax ([5]; as restated in the discussion (Figure 3), unstimulated HEKsst2): 4.4 × 10^−10 nmol/cell
Bmax as bound activity ([5]; corresponds to Bmax = 4.4 × 10^−10 nmol/cell): 15.5 kBq/500,000 cells
Bmax ([5]; unstimulated HEKsst2, 1 h, 37 °C, one-site model, specific binding, 95% CI = 4.15 × 10^−10 to 4.58 × 10^−10 nmol): 4.36e-10 nmol
Kd ([5]; unstimulated HEKsst2, 1 h, 37 °C, one-site model): 2.1 nM
number of binding sites per cell ([5]; unstimulated HEKsst2): 2.63 × 10^5
number of binding sites per cell, unstimulated compared to stimulated ([5]; unstimulated vs stimulated HEKsst2): three-fold lower
Lu-177-DOTATATE uptake (intracellular activity, % of total activity normalized to 2.0 × 10^5 cells) ([6]; 1 h, cells stimulated 5 days with 5.0 µM 5-aza-dC and 1.85 mM VPA, p = 0.0142 vs unstimulated, gamma counter): 50.2%
Lu-177-DOTATATE uptake (intracellular activity, % of total activity normalized to 2.0 × 10^5 cells) ([6]; 1 h, unstimulated cells): 1.8%
increase in Lu-177-DOTATATE uptake vs unstimulated ([6]; 1 h, 0.1 µM 5-aza-dC (and 1.85 mM VPA), p = 0.060): also shows stimulatory effects, no significant difference was found
increase in Lu-177-DOTATATE uptake vs unstimulated ([6]; 1 h, 5.0 µM 5-aza-dC and 1.85 mM VPA, p < 0.05): 2800%
Lu-177-DOTATATE uptake (intracellular activity, % of total activity normalized to 2.0 × 10^5 cells) ([6]; 24 h, cells stimulated with 5.0 µM 5-aza-dC and 1.85 mM VPA, p = 0.0090 vs unstimulated): 36.2%
Lu-177-DOTATATE uptake (intracellular activity, % of total activity normalized to 2.0 × 10^5 cells) ([6]; 24 h, unstimulated cells): 5.6%
increase in Lu-177-DOTATATE uptake vs unstimulated ([6]; 24 h, 3.9 µM 5-aza-dC and 1.85 mM VPA, p < 0.05): ≈ 640%
increase in Lu-177-DOTATATE uptake vs unstimulated ([6]; 24 h, 5.0 µM 5-aza-dC and 1.85 mM VPA, p < 0.05): ≈ 640%
increase of Lu-177-DOTATATE uptake by a factor ([6]; 1 h, p = 0.0142): 28
increase of Lu-177-DOTATATE uptake by a factor ([6]; 24 h, p = 0.0090): 6.5
decrease of the survival with Lu-177-DOTATATE concentration [7]: much less pronounced
Lu-177-DOTATATE uptake values compared to unstimulated cells ([8]; stimulated PC3, 1 h, p = 0.4935): marginal increase
Lu-177-DOTATATE uptake values compared to unstimulated cells ([8]; stimulated PC3, 24 h, p = 0.3694): marginal increase

octreotide
inhibition of the Forskolin-stimulated cAMP production [9]: inhibition of the Forskolin-stimulated cAMP production
